From paper PMC4643876, “Picomolar Inhibition of Plasmepsin V, an Essential Malaria Protease, Achieved Exploiting the Prime Region” (PLoS ONE, 2015)
Several values for one entry are separate records, joined by “and”; a condition that tells them apart may be missing. Identical values can stand only once. Like-named read-outs stand apart in the source and are kept apart here. Square brackets hold non-standard residues; d marks the D form. Peptide text beside a SMILES is read from it. * marks the point of attachment. DABCYL = CN(C)c1ccc(/N=N/c2ccc(C(=O)*)cc2)cc1; EDANS = O=S(=O)(O)c1cccc2c(NCCN*)cccc12; Sta = CC(C)C[C@H](N)[C@@H](O)CC(=O)O; Isovaleryl = CC(C)CC(=O)*

How the values were obtained:
[1] = target: T1, Plasmepsin V (PmV) (Plasmodium falciparum, UniProt Q8I6Z5); assay: PmV inhibition, fluorimetric PExEl cleavage assay; assay type: biochemical
T1 construct: PmV was purified directly from parasites; made in house
Description: Saponin was added to culture to a final 0.05%; parasites were recovered via centrifugation at 4°C after 5 min of incubation on ice; parasite pellets were then washed twice in cold PBS and either immediately lysed or stored at -80°C until lysis. Parasites were lysed via three pulses of ultra-sonication of 10 sec duration, in PBS containing 0.5% Triton-X100 (TX-100). […] Quick washes of the resin were performed either in batches, or over columns, to remove unbound cellular material (four with ice-cold 0.5% TX-100 in PBS and a final one with cold PBS). Resin-bound PmV was stored in PBS at 4°C and used within 2–3 weeks, larger batches had Glycerol added to them, up to 10%, and were stored at -20°C for up to 5 months. […] Quality and purity of PmV batches were routinely confirmed by protein electrophoresis. Quantification of PmV was performed via densitometry analysis of stained protein SDS-PAGE gels relative to BSA standard curves.
(§1) PExEl cleavage activity was monitored by fluorimetric measurement of PExEl cleavage, as previously reported. […] PmV activity was performed at 37°C in 50 mM Tris-Maleate, pH 6.5, 50 mM NaCl, 0.05% TX-100, 2 mM DTT. Assays were routinely conducted in triplicate. Bead-bound enzyme was added to the reaction using ‘end-cut’ micropipette tips in order to facilitate sampling the suspension.
Inhibitory activities were measured in the presence of a substrate concentration of 3 μM by serial dilution of each compound in triplicates. […] Titration curves of the inhibitors were routinely composed of eleven points from 10 μM to 0.1 pM. PmV concentration was kept in the order of low picomolar (≤10 pM). […] Analysis of the half inhibitory activity (IC50) was performed by sigmoidal interpolation of the starting velocities of the hydrolytic reactions for each condition. Starting velocities were calculated on the initial linear range of the product progression curves. […] Data are presented with error bars indicating the standard deviation of three independent activity curves.

[2] = test system: Plasmodium falciparum strain 3D7; assay: Parasite growth inhibition by flow cytometry, strain 3D7; assay type: cell-based; settings: asynchronous 3D7 cultures, about 4 days, 0.195–200 μM, flow cytometry
[3] = test system: clone G6 (PmV-GFP-DD); assay: Growth curve analysis over 10 days, clone G6; assay type: cell-based, Plasmodium falciparum; set-up: growth rate (r): unit not given here; settings: 0.75 μM Shield-1
Text: (§2) Fig 14 PmV-GFP-DD clone G6 generation and characterization. (A) Creation of a PmV-GFP-DD chimera by homologous recombination. […] The plasmid contains sequence from the PmV ORF 3’ end in frame with GFP-DD [24]. Relative positions of BsrGI restriction sites (vertical bars) and the probe are indicated. (B) Southern blot of BsrGI-restricted DNA from the parental strain 3D7, the 3 drug cycles (Selection I, II, III), 3 of the isolated clones, among which G6 is number 3, and the transfected plasmid (at the far right) is shown. Arrows: endogenous gene (blue), and modified PmV locus (green). (C) Live microscopy of the clone expressing the cytosolic YFP-DD chimera (via episomally maintained plasmid) and G6 in presence or absence of 0.5 μM Shield-1. Top to Bottom: bright field (grey), Hoechst (blue), fluorescent proteins (green), Lysotracker (red), merges of the blue and green channels and of all three channels. (D) Western blot of total lysates of parasites at diverse concentrations of Shield-1 (0–1 μM): clone DC6, clone G6 and 3D7 expressing YFP-DD. PmV was detected with both anti-GFP and anti-PmV. BiP detection served as loading control. (E) Live microscopy of the G6 clone expressing the PmV-GFP-DD chimera at various Shield-1 concentrations (0–1 μM). (F) PmV levels from DC6 (green) and G6 (red) were quantified from blot (panel D) and plotted as ratio of PmV to BiP. The last point of the ratio is affected by a reduced BiP expression in 1 μM Shield-1. This is possibly due to the level of toxicity of this molecule at high concentrations. (G) Flow cytometry analysis of the GFP signal of PmV-GFP-DD (clone G6) in presence (green line) or absence (red line) of 0.75 μM Shield-1 in respect of PmV-GFP (clone DC6) (black line). The cellular levels of PmV-GFP(±DD) are similar in the presence 0.75 μM Shield-1 while PmV-GFP-DD is about 4 times less than PmV-GFP in the absence of Shield-1. (H) Growth curve analysis over 10 days for PmV-GFP-DD and DC6 in the presence or absence of 0.75 μM Shield-1.

[4] = test system: clone DC6; assay: Growth curve analysis over 10 days, clone DC6; assay type: cell-based, Plasmodium falciparum; set-up: growth rate (r): unit not given here; settings: 0.75 μM Shield-1
Text: as §2

[5] = target: T1, Plasmepsin V (PmV); assay: PmV steady-state kinetics of substrate hydrolysis; assay type: biochemical
Description: as §1
Steady-state measurements of PmV substrate hydrolysis were analyzed assuming the widely accepted aspartic protease mechanism, E + S → ES → ET* → EP → E + P, where P is the product of the reaction; S is the substrate; E is the free enzyme; ES, ET* and EP denote the enzyme-substrate, the transition state and enzyme-product adducts, respectively. The measurement of steady-state velocity of product formation, v = d[P]/dt, yielded catalytic constants according to the classical Michaelis-Menten equation v = e * kcat *[S] / ([S] + K M), where e is enzyme concentration. In our experimental conditions the fluorescence of HETQ-EDANS (AnaSpec), the reaction product (P), was quantified by titration. PmV kinetics parameters were calculated using non-linear curve-fitting analyses from SigmaPlot on the basis of measurements with multiple substrate concentrations monitored until the completion of the reaction. […]

[6] = 3 μM HRPII-PExEl substrate, averages of not less than three inhibition curves, read-out: IC50

T1 sequence (Q8I6Z5 whole entry): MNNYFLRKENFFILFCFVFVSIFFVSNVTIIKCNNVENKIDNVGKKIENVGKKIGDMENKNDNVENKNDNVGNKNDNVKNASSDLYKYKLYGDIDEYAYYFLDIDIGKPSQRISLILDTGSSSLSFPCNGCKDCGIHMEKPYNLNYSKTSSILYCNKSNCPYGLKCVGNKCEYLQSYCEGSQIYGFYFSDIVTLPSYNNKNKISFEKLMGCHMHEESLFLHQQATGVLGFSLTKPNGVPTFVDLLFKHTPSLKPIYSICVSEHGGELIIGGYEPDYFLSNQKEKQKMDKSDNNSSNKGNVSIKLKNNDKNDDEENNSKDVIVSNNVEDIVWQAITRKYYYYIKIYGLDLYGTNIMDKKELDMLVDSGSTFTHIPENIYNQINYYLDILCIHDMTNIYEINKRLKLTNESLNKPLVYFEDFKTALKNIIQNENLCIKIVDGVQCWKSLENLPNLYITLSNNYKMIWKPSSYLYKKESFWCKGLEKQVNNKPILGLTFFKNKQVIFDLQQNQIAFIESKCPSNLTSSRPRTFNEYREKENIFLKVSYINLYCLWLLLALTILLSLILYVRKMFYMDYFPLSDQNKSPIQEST

Compound	Ki [1] [nM]	IC50 [1, 6] [nM]	LD50 growth inhibition [2]	further results
CC[C@H](C)[C@H](NC(=O)[C@@H](N)CCCNC(=N)N)C(=O)N[C@@H](CC(C)C)C(O)CN[C@@H](C)C(=O)N[C@@H](CCC(=O)O)C(=O)N[C@@H](C)C(N)=O (mixture of isomers) [Compound 5]	0.35	0.65	> 200 µM	
CC(C)C[C@H](NC(=O)[C@@H](N)Cc1c[nH]c2ccccc12)C(=O)N[C@@H](CC(C)C)[C@@H](O)CN[C@@H](C)C(=O)N[C@@H](CCC(=O)O)C(=O)N[C@@H](C)C(N)=O [Compound 15a]	1380	2570	~ 100.5 μM	
CC[C@H](C(=O)N1CCCC[C@H]1C(=O)O[C@H](CCc1ccc(OC)c(OC)c1)c1cccc(OCCN2CCOCC2)c1)c1cc(OC)c(OC)c(OC)c1 [Shield-1]				doubling time (T) [3]: 34.15 h; growth constant (k) [3]: 0.0203; growth rate (r) [3]: 2.05; doubling time (T) [4]: 34.83 h; growth constant (k) [4]: 0.0199; growth rate (r) [4]: 2.01
CC(C)C[C@H](NC(=O)[C@@H](N)CCCNC(=N)N)C(=O)N[C@@H](CC(C)C)[C@H](O)CN[C@@H](C)C(=O)N[C@@H](CCC(N)=O)C(=O)N[C@@H](C)C(N)=O [Compound 8b]			~ 120.5 μM	
CC(C)C[C@H](NC(=O)[C@@H](N)CCCNC(=N)N)C(=O)N[C@@H](CC(C)C)C(O)CN[C@@H](C)C(=O)N[C@@H](CCC(=O)O)C(=O)N[C@@H](C)C(=O)O (mixture of isomers) [Compound 4]	0.7	1.31	> 200 µM	IC50 increase compared to Compound 1 [1]: 1.3–3.5 fold
DABCYL-LNKRLLHETQ-EDANS ({DABCYL}-LNKRLLHETQ-{EDANS}; SMILES CC(C)C[C@H](NC(=O)c1ccc(/N=N/c2ccc(N(C)C)cc2)cc1)C(=O)N[C@@H](CC(N)=O)C(=O)N[C@@H](CCCCN)C(=O)N[C@@H](CCCNC(=N)N)C(=O)N[C@@H](CC(C)C)C(=O)N[C@@H](CC(C)C)C(=O)N[C@@H](Cc1c[nH]cn1)C(=O)N[C@@H](CCC(=O)O)C(=O)N[C@H](C(=O)N[C@@H](CCC(N)=O)C(=O)NCCNc1cccc2c(S(=O)(=O)O)cccc12)[C@@H](C)O) [HRPII-derived fluorogenic substrate of PmV]				Km [5]: 3.48 µM; K M ([5]; substrate 0.19 to 6 μM): 3.48 (±0.7) 10^−6 M
CSCC[C@H](N)C(=O)N[C@@H](CC(C)C)C(=O)N[C@@H](CC(C)C)C(O)CN[C@@H](C)C(=O)N[C@@H](CCC(=O)O)C(=O)N[C@@H](C)C(=O)O (mixture of isomers) [Compound 16]		> 10000	> 200 µM	IC50 ([1]; 3 μM substrate, tested up to 10 μM): completely inactive
CC[C@H](C)[C@H](NC(=O)[C@@H](N)CCCNC(=N)N)C(=O)N[C@@H](CC(C)C)C(O)CN[C@@H](C)C(=O)N[C@@H](CCC(=O)O)C(=O)N[C@@H](C)C(=O)O (mixture of isomers) [Compound 6]	1.16	2.16	> 200 µM	IC50 increase compared to Compound 5 [1]: 1.3–3.5 fold
CC(C)C[C@H](NC(=O)[C@@H](N)CCCNC(=N)N)C(=O)N[C@@H](CC(C)C)[C@@H](O)CN[C@@H](C)C(=O)N[C@@H](CCC(N)=O)C(=O)N[C@@H](C)C(N)=O [Compound 8a]	0.83	1.55	64.1 µM	IC50 increase compared to Compound 1 [1]: ~ 4 fold
CCCCCCCC(=O)N[C@@H](CCCNC(=N)N)C(=O)N[C@@H](CC(C)C)C(=O)N[C@@H](CC(C)C)[C@@H](O)CN[C@@H](Cc1ccc(O)cc1)C(=O)N[C@@H](CCC(=O)O)C(=O)N[C@@H](C)C(N)=O [Compound 37a]	0.01	0.023	> 200 µM	fold more active than parent compound 7a [1]: more than 50 fold; IC50 ([1]; 3 μM substrate, read-out: IC50): ~0.023 nM
CC(=O)N[C@@H](CCCNC(=N)N)C(=O)N[C@@H](CC(C)C)C(=O)N[C@@H](CC(C)C)C(O)CN[C@@H](C)C(=O)N[C@@H](CCC(N)=O)C(=O)N[C@@H](C)C(N)=O (mixture of isomers) [Compound 35]	63.5	118	16.5 μM and ~ 16.5 μM	
O=c1oc2c(O)c(O)cc3c(=O)oc4c(O)c(O)cc1c4c23 [Ellagic acid, reference compound]			2.4 µM	
CC(C)C[C@H](NC(=O)[C@@H](N)CCCNC(=N)N)C(=O)N[C@@H](CC(C)C)[C@@H](O)CN[C@@H](Cc1ccc(O)cc1)C(=O)N[C@@H](CCC(N)=O)C(=O)N[C@@H](C)C(N)=O [Compound 9a]	6.8	12.7		IC50 increase compared to Compound 7a [1]: ~ 9 fold; IC50 increase compared to Compound 8a [1]: 4–7 fold
CC(C)C[C@H](NC(=O)[C@@H](N)CCC(N)=O)C(=O)N[C@@H](CC(C)C)[C@@H](O)CN[C@@H](C)C(=O)N[C@@H](CCC(=O)O)C(=O)N[C@@H](C)C(=O)O [Compound 17a]	2360	4390	> 200 µM	
CC(C)CC(=O)N[C@H](C(=O)N[C@H](C(=O)N[C@@H](CC(C)C)[C@@H](O)CC(=O)N[C@@H](C)C(=O)N[C@@H](CC(C)C)[C@@H](O)CC(=O)O)C(C)C)C(C)C [Pepstatin A, reference compound] (Isovaleryl-VV[Sta]A[Sta]-OH)	23400	43500		
